{"source": "patent US20200347148A1", "about": "“METHODS FOR ENHANCING AND MAINTAINING CAR-T CELL EFFICACY” (Bellicum Pharmaceuticals, Inc., priority 2017, published 2020)", "key": {"[1]": {"test_system": "iC9 (inducible caspase-9) safety switch", "assay": "Rimiducid activation of the iC9 safety switch in CAR-T-treated tumor-bearing NSG mice", "format": "in vivo", "protocol": "Animal Models. To evaluate anti-tumor activity of CD19-targeted CAR-T cells, NSG mice were engrafted with 5×10^5 CD19^+ Raji or Raji-EGFPluc tumor cells by intravenous (i.v.) tail vein injection. After 4 days, variable doses of non-transduced and gene-modified T cells were administered by i.v. (tail) injection. In some experiments, mice were rechallenged with Raji-EGFPluc […] as above. To test CD123-specific CAR-T activity, 1×10^6 CD123^+ THP-1-EGFPluc were engrafted by i.v. injection, followed by infusion of 2.5×10^6 unmodified or CAR-T cells 7 days post-tumor engraftment. iC9 titration experiments were performed by treating Raji tumor-bearing mice with 5×10^6 iC9-CD19.ζ-MC-modified T cells followed by injection of rimiducid 7 days after T cell injection at 0.00005, 0.0005, 0.005, 0.05, 0.5 and 5 mg/kg. To evaluate cytokine-related toxicities, neutralizing antibodies against hIL-6, hIFN-γ and TNF-α or an isotype control antibody (Bio X Cell, West Lebanon, N.H.) were administered by i.p. injection with 100 ug twice weekly. Additional experiments were performed using positively selected CD4^+ and CD8+ iC9-CD19.ζ-MC-modified T cells using CD4 or CD8 microbeads and MACS columns (Miltenyi Biotec). In vivo tumor growth and T cell proliferation was measured by bioluminescence imaging (BLI) by i.p. injection of 150 mg/kg D-luciferin (Perkin Elmer, Waltham, Mass.) and imaged using the IVIS imaging system (Perkin Elmer). Photon emission was analyzed by whole body region-of-interest (ROI) and signal measured as average radiance (photons/second/cm2/steradian).\nWhile administration of high dose rimiducid (5 mg/kg) allowed the persistence of low level CAR-T cells, titration of rimiducid may permit the retention of more gene-modified T cells while mitigating cytokine-related toxicities. T cells were co-transduced with iC9-CD19.ζ-MC and EGFPluc and administered into Raji-bearing mice. Following the onset of cachexia (>10% body weight loss), a log-titration of rimiducid (5-5×10^−5 mg/kg) was administered as a single i.p. injection (FIG. 6A).\nTo further study cachexia associated with administration of iC9-CAR.-MC-modified T cells, the CD19-redirected construct was assayed against CD19^+ Daudi tumors in vivo, and neutralizing antibodies targeting human IL-6, IFN-γ and TNF-α, all of which are cross-reactive with murine cytokine receptors, were administered, and followed by monitoring of mouse weight loss. Here, tumor-bearing mice were treated with 5×10^6 iC9-CD19.ζ-MC transduced T cells and following >10% weight loss, intervention with either a single i.p. dose of rimiducid (0.5 mg/kg) or vehicle, or twice weekly injections of 100 ug per mouse anti-hIFN-γ, hIL-6 or hTNF-α was initiated (FIG. 9A). […] 5×10^6 iC9-CD19.ζ-MC-modified T cells were injected in to Daudi-bearing NSG mice and then treated with 0.5 mg/kg rimiducid after >10% weight loss or with i.p. injections with […] twice per week with an isotype antibody (control) or with neutralizing antibodies against human TNF-α, IL-6 and IFN-γ. Weight recovery was monitored until day 28. […] Thus, cytokine blockade provides a second effective mechanism to resolve the toxicity of this potent approach."}, "[2]": {"conditions": "Iuliucci J D, et al., J Clin Pharmacol. 2001; cited from earlier work"}, "[3]": {"conditions": "Raji model, 24 hours post-rimiducid"}}, "note": "Entries after “also recorded” stand apart in the source; their conditions may differ.", "data": [{"smiles": "CC[C@H](C(=O)N1CCCC[C@H]1C(=O)O[C@H](CCc1ccc(OC)c(OC)c1)c1cccc(OCC(=O)NCCNC(=O)COc2cccc([C@@H](CCc3ccc(OC)c(OC)c3)OC(=O)[C@@H]3CCCCN3C(=O)[C@@H](CC)c3cc(OC)c(OC)c(OC)c3)c2)c1)c1cc(OC)c(OC)c(OC)c1", "note": "(relative stereo) [rimiducid, 2-Piperidinecarboxylic acid, 1-[(2S)-1-oxo-2-(3,4,5-trimethoxyphenyl)butyl]-, 1,2-ethanediylbis[imino(2-oxo-2,1-ethanediyl)oxy-3,1-phenylene[(1R)-3-(3,4-dimethoxyphenyl)propylidene]] ester, [2S-[1(R*),2R*[S*[S*[1(R*),2R*]]]]]-(9CI)]", "values": [{"measurement": "serum concentrations of hTNF-α", "setting": "[1]; Daudi model, 0.5 mg/kg single i.p.", "result": "significantly reduced"}, {"measurement": "CAR-T BLI after rimiducid titration", "setting": "[1]; Raji model, 5-5×10^−5 mg/kg single i.p.", "result": "reduced in a rimiducid dose-dependent manner"}, {"measurement": "serum cytokine levels (IL-6, IFN-γ, TNF-α) after rimiducid titration", "setting": "[1]; [3]", "result": "decreased serum cytokine levels"}, {"measurement": "serum levels of human cytokines (IFN-γ, IL-6) after rimiducid", "setting": "[1]; [3]", "result": "reverted to baseline levels"}, {"measurement": "resolution of CAR-related toxicity (weight loss)", "setting": "[1]; Raji model, iC9-CD19.ζ-MC T cells, single 5 mg/kg i.p., 5 mg/kg", "result": "promptly resolved toxicity; also recorded: successfully resolved"}, {"measurement": "resolution of cachexia", "setting": "[1]; THP-1 model, iC9-CD123.ζ-MC T cells, without affecting tumor control", "result": "could be resolved"}, {"measurement": "safety in healthy volunteers", "setting": "[2]", "result": "proven safe"}]}]}
